From patent publication US20050042688A1, “Cellular analysis” (priority 2003, published 2005) come the findings set out here.

The test concerns T cells. As to conditions: whole blood collected in EDTA versus heparin as anticoagulant, 37° C., activated with PDBu/ionomycin. On the procedure:
In this example, whole blood was collected from a donor in collection tubes containing heparin (curve 1) or EDTA (curve 2), respectively, as the anticoagulants. Blood samples were then incubated at 37° C. and activated with phorbol ester and a calcium ionophore (PDBu/I, phorbol-12,13-dibutyrate/ionomycin).

For `O=C(O)CN(CCN(CC(=O)O)CC(=O)O)CC(=O)O` [EDTA], the “responsiveness of T-cells (level of inducible actin polymerization by PDBu/I)” value is “dramatic decrease in the responsiveness of T-cells”.
